Cytotoxicity, DNA alkylation and IC50 data for 13 compounds are collected here from ChEMBL document CHEMBL1128798, “The in vitro cytotoxicity and DNA alkylating ability of the simplest functional analogues of the seco CC-1065 alkylating subunit” (Bioorg Med Chem Lett, 1995).

The structures appear in SMILES notation. pIC50: −log10 of the molar value.

For one test, the system named is MM418. The test can be described thus: Tested in vitro for cytotoxicity against MM418c15a cell line in human melanoma with high melanin content. The format is functional.
Conditions: not given
`CS(C)(=O)=O` [DIMETHYL SULFONE] returned a Cytotoxicity of 58 µM.
`Oc1ccc(CCBr)cc1` came in with a Cytotoxicity of 25 µM.

The test system of another test is MM96L. In words: Tested in vitro for cytotoxicity against MM96L cell line in human melanoma.
Conditions: not given
It counts as functional.
`Oc1cccc(CCBr)c1` returned a Cytotoxicity of 60 µM.
The same measure, in the same setting: the value for `COc1ccc(CCCl)cc1` was 1970 µM; that for `CS(C)(=O)=O` [DIMETHYL SULFONE] was 56 µM; that for `OCCc1cccc(O)c1` was 2530 µM.
`COc1ccc(CCO)cc1`: the Cytotoxicity worked out at 3330 µM.
Regarding `Oc1cccc(CCCl)c1`, the Cytotoxicity came to 450 µM.
On the same count and under the same terms, the value for `Oc1cccc(CCI)c1` was 20 µM; that for `COc1ccc(CCBr)cc1` was 520 µM.
Regarding `COc1ccc(CCI)cc1`, the Cytotoxicity worked out at 25 µM.
Still for that read-out and setting: the value for `OCCc1ccc(O)cc1` [TYROSOL] was 905 µM; that for `Oc1ccc(CCBr)cc1` was 16 µM; that for `Oc1ccc(CCI)cc1` was 43 µM.
Same read-out and setting: under `Oc1ccc(CCCl)cc1` stands 42 µM.

A further test concerns B16. The test can be described thus: Tested in vitro for cytotoxicity against B16 cell line in murine melanoma. It counts as functional, Mus musculus.
Conditions: not given
Consider `Oc1ccc(CCBr)cc1`, for which the Cytotoxicity is 44 µM.

The test system of the next test is CI80-13S cell line. The test can be described thus: Tested in vitro for cytotoxicity against CI80-13S cell line in DNA cross-linking resistant human ovarian carcinoma. It counts as functional.
Conditions: not given
Compound `CS(C)(=O)=O` [DIMETHYL SULFONE] came in with a Cytotoxicity of 59 µM.
For `Oc1ccc(CCBr)cc1`, the Cytotoxicity is 27 µM.

The next test relates to Nucleic Acid. The test can be described thus: Compound was tested in vitro for DNA alkylation intensity; value is given as. It counts as functional.
Conditions: not given
For `Oc1ccc(CCBr)cc1`, the DNA alkylation result is recorded as “value is given as”.
For `Oc1ccc(CCI)cc1`, the DNA alkylation entry is on record as “value is given as”.

The next test relates to B16. The test can be described thus: Tested in vitro for cytotoxicity against B16 cell line in murine melanoma activity expressed in IC50. The format is functional, cell-based. The conditions noted are these: Mus musculus.
For the compound `Oc1ccc(CCBr)cc1`, the pIC50 is 4.49.

The next test relates to HeLa. In words: Tested in vitro for cytotoxicity against He La cell line in human cervical carcinoma. It counts as functional.
Conditions: not given
As for `Oc1cccc(CCBr)c1`, the Cytotoxicity came to 75 µM.
Regarding `COc1ccc(CCCl)cc1`, the Cytotoxicity is 670 µM.
As to `CS(C)(=O)=O` [DIMETHYL SULFONE], the Cytotoxicity turned out to be 35 µM.
`OCCc1cccc(O)c1`: the Cytotoxicity was determined as 7530 µM.
For `COc1ccc(CCO)cc1`, the Cytotoxicity is 4420 µM.
`Oc1cccc(CCCl)c1` came in with a Cytotoxicity of 450 µM.
The same measure, in the same setting: under `Oc1cccc(CCI)c1` stands 19 µM; under `COc1ccc(CCBr)cc1`, 220 µM; under `COc1ccc(CCI)cc1`, 22 µM.
Compound `OCCc1ccc(O)cc1` [TYROSOL] gave a Cytotoxicity of 1420 µM.
For the compound `Oc1ccc(CCBr)cc1`, the Cytotoxicity came out at 18 µM.
Consider `Oc1ccc(CCI)cc1`, for which the Cytotoxicity is 33 µM.
Still for that read-out and setting: under `Oc1ccc(CCCl)cc1` stands 32 µM.

Broadly, the pIC50 is the IC50 on a negative log10 scale, so that one unit is a factor of ten. Read a low pIC50 as a large IC50.
